The text below walks through data of patent US8569302B2, “Inhibitors of flaviviridae viruses” (Gilead Sciences, Inc., priority 2009, dated 2013).

Structures are written as SMILES.

The subject of this test is human hepatoma Huh-7 cell line harboring a HCV replicon. The experiment in a line: HCV replicon assay (inhibition of viral replication, luciferase readout). In kind it is cell-based. The note with it: Hepatitis C virus, 72 h, Huh-7 HCV replicon cells, 3 days incubation. Put shortly:
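Read-outs: luciferase luminescence for replication inhibition, corrected by ITMN-191 (100% inhibition) wells, and calcein AM fluorescence for cytotoxicity. Cells were treated for 3 days at 37 °C with ten 3-fold compound dilutions in 0.44% final DMSO. Percent inhibition relative to DMSO was fitted with a Hill equation to give EC50 and CC50.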
(In general: In antiviral work, replicon cells carry a viral genome segment that copies itself.)
For orientation: inhibition means how much of the control response was suppressed. Low values mean a response near the control, high ones a response far below the control. For the molecule `CN1CCC(NC(=O)c2ccnc(O[C@H]3CC[C@H](N(c4cc(C#CC(C)(C)C)sc4C(=O)O)C(=O)[C@H]4CC[C@H](C)CC4)CC3)c2)CC1` [Compound 167, Sodium 3-(N-(4-(4-((1-methylpiperidin-4-yl)carbamoyl)pyridin-2-yloxy)cyclohexyl)-4-methylcyclohexanecarboxamido)-5-(3,3-dimethylbut-1-ynyl)thiophene-2-carboxylate], 2 µM produced 99.9% inhibition.

`CC(C)(C)C#Cc1cc(N(C(=O)[C@H]2CC[C@H](C)CC2)[C@H]2CC[C@H](Oc3cc(C(=O)N4CCCC4)ccn3)CC2)c(C(=O)O)s1` [Compound 166, Sodium 5-(3,3-dimethylbut-1-ynyl)-3-(4-methyl-N-(4-(4-(pyrrolidine-1-carbonyl)pyridin-2-yloxy)cyclohexyl)cyclohexanecarboxamido)thiophene-2-carboxylate]: testing at 2 µM gave an inhibition of 99.9%.

`CC(C)(C)C#Cc1cc(N(C(=O)[C@H]2CC[C@H](C)CC2)[C@H]2CC[C@H](Oc3cccc(S(C)(=O)=O)n3)CC2)c(C(=O)O)s1` [Compound 6, 5-(3,3-Dimethyl-but-1-ynyl)-3-[[trans-4-(6-methanesulfonyl-pyridin-2-yloxy)-cyclohexyl]-(trans-4-methyl-cyclohexanecarbonyl)-amino]-thiophene-2-carboxylic acid]: the inhibition at 2 µM amounted to 99.9%.

`CC(C)(C)C#Cc1cc(N(C(=O)[C@H]2CC[C@H](C)CC2)[C@H]2CC[C@H](Oc3cncc(N4CCCC4)n3)CC2)c(C(=O)O)s1` [Compound 153, 5-(3,3-Dimethylbut-1-ynyl)-3-(4-methyl-N-(4-(6-(pyrrolidin-1-yl)pyrazin-2-yloxy)cyclohexyl)cyclohexanecarboxamido)thiophene-2-carboxylic acid] had an inhibition at 2 µM of 100%.

On to `CC(C)(C)C#Cc1cc(N(C(=O)[C@H]2CC[C@H](C)CC2)C2CCN(S(=O)(=O)c3cccnc3)CC2)c(C(=O)O)s1` [Compound 210, 5-(3,3-Dimethyl-but-1-ynyl)-3-{(4-methyl-cyclohexanecarbonyl)-[1-(pyridine-3-sulfonyl)-piperidin-4-yl]-amino}-thiophene-2-carboxylic acid], for which 2 µM produced 100% inhibition.

For `CC(C)(C)C#Cc1cc(N(C(=O)[C@H]2CC[C@H](C)CC2)[C@H]2CC[C@H](S(=O)(=O)C3CCOCC3)CC2)c(C(=O)O)s1` [Compound 109, 5-(3,3-Dimethylbut-1-ynyl)-3-(4-methyl-N-(4-(tetrahydro-2H-pyran-4-ylsulfonyl)cyclohexyl)cyclohexanecarboxamido)thiophene-2-carboxylic acid], the inhibition at 2 µM came out at 99.9%.

Regarding `Cc1ccc(O[C@H]2CC[C@H](N(c3cc(C#CC(C)(C)C)sc3C(=O)O)C(=O)[C@H]3CC[C@H](C)CC3)CC2)nc1` [Compound 11, 5-(3,3-Dimethyl-but-1-ynyl)-3-{(trans-4-methyl-cyclohexanecarbonyl)-[trans-4-(5-methyl-pyridin-2-yloxy)-cyclohexyl]-amino}-thiophene-2-carboxylic acid], the inhibition at 2 µM turned out to be 99.9%.

On to `CC(C)(C)C#Cc1cc(N(C(=O)[C@H]2CC[C@H](C)CC2)[C@H]2CC[C@H](Oc3nc(CN4CCCC4)ns3)CC2)c(C(=O)O)s1` [Compound 161, 5-(3,3-Dimethylbut-1-ynyl)-3-(4-methyl-N-(4-(3-(pyrrolidin-1-ylmethyl)-1,2,4-thiadiazol-5-yloxy)cyclohexyl)cyclohexanecarboxamido)thiophene-2-carboxylic acid], for which the inhibition at 2 µM is 99.9%.

`C[C@@H]1CC[C@@H](C(=O)N(c2cc(C#CC(C)(C)C)sc2C(=O)O)[C@H]2CC[C@@H](OC3CCOC3)CC2)[C@@H](O)C1` (single isomer, unassigned) [Compound 228] returned an inhibition at 2 µM of 99.9%.

`CC(C)(C#Cc1cc(N(C(=O)[C@H]2CC[C@H](C)CC2)[C@H]2CC[C@H](OC3CCOC3)CC2)c(C(=O)O)s1)CCO` (stereo partly drawn) [Compound 314, 5-(5-Hydroxy-3,3-dimethyl-pent-1-ynyl)-3-{(4-methyl-cyclohexanecarbonyl)-[4-(tetrahydro-furan-3-yloxy)-cyclohexyl]-amino}-thiophene-2-carboxylic acid]: the inhibition at 2 µM was 99.9%.

In turn, `CC(C)(C)C#Cc1cc(N(C(=O)[C@H]2CC[C@H](C)CC2)[C@H]2CC[C@H](O[C@@H]3CCN(C(=O)OC(C)(C)C)C3)CC2)c(C(=O)O)s1` [Compound 230, 3-(N-(4-((R)-1-(tert-butoxycarbonyl)pyrrolidin-3-yloxy)cyclohexyl)-4-methylcyclohexanecarboxamido)-5-(3,3-dimethylbut-1-ynyl)thiophene-2-carboxylic acid] registered an inhibition at 2 µM of 98.4%.

Molecule `C[C@H]1CC[C@H](C(=O)N(c2cc(C#CC3(C(F)(F)F)CC3)sc2C(=O)O)[C@H]2CC[C@@H](OC3CCOC3)CC2)CC1` (stereo partly drawn) [Compound 346, 3-((1r,4R)-4-methyl-N-((1s,4S)-4-(tetrahydrofuran-3-yloxy)cyclohexyl)cyclohexanecarboxamido)-5-(2-(1-(trifluoromethyl)cyclopropyl)ethynyl)thiophene-2-carboxylic acid] showed an inhibition at 2 µM of 99.5%.

Take `CC(C)(C)C#Cc1cc(N(C(=O)[C@H]2CC[C@H](C)CC2)[C@H]2CC[C@H](Sc3nc[nH]n3)CC2)c(C(=O)O)s1` [Compound 97, 3-(N-(4-(1H-1,2,4-Triazol-3-ylthio)cyclohexyl)-4-methylcyclohexanecarboxamido)-5-(3,3-dimethylbut-1-ynyl)thiophene-2-carboxylic acid]: the inhibition at 2 µM was found to be 99.9%.

As to `CC(C)(C)C#Cc1cc(N(C(=O)[C@H]2CC[C@H](C)CC2)[C@H]2CC[C@H](Oc3cc(C(=O)N4CCC4)ccn3)CC2)c(C(=O)O)s1` [Compound 168, Sodium 3-(N-(4-(4-(azetidine-1-carbonyl)pyridin-2-yloxy)cyclohexyl)-4-methylcyclohexanecarboxamido)-5-(3,3-dimethylbut-1-ynyl)thiophene-2-carboxylate], the inhibition at 2 µM is 99.9%.

Take `C[C@@H](CCOc1ccccn1)N(c1cc(C#CC(C)(C)C)sc1C(=O)O)C(=O)[C@H]1CC[C@H](C)CC1` [Compound 60]: the inhibition at 2 µM is 97.5%.

Molecule `CN(C)c1cc(O[C@H]2CC[C@H](N(c3cc(C#CC(C)(C)C)sc3C(=O)O)C(=O)[C@H]3CC[C@H](C)CC3)CC2)ncn1` [Compound 158, 3-(N-(4-(6-(Dimethylamino)pyrimidin-4-yloxy)cyclohexyl)-4-methylcyclohexanecarboxamido)-5-(3,3-dimethylbut-1-ynyl)thiophene-2-carboxylic acid] returned an inhibition at 2 µM of 99.9%.

`Cc1cccc(O[C@H]2CC[C@H](N(c3cc(C#CC(C)(C)C)sc3C(=O)O)C(=O)[C@H]3CC[C@H](C)CC3)CC2)n1` [Compound 8, 5-(3,3-Dimethyl-but-1-ynyl)-3-{(trans-4-methyl-cyclohexanecarbonyl)-[trans-4-(6-methyl-pyridin-2-yloxy)-cyclohexyl]-amino}-thiophene-2-carboxylic acid] registered an inhibition at 2 µM of 96.7%.

As to `CC(C)(C)C#Cc1cc(N(C(=O)[C@H]2CC[C@H](C)CC2)[C@H]2CC[C@H](Oc3ccc(C(F)(F)F)cn3)CC2)c(C(=O)O)s1` [Compound 10, 5-(3,3-Dimethyl-but-1-ynyl)-3-{(trans-4-methyl-cyclohexanecarbonyl)-[trans-4-(5-trifluoromethyl-pyridin-2-yloxy)-cyclohexyl]-amino}-thiophene-2-carboxylic acid], the inhibition at 2 µM worked out at 56.2%.

For the molecule `CN(C)C1CCN(C(=O)c2ccnc(O[C@H]3CC[C@H](N(c4cc(C#CC(C)(C)C)sc4C(=O)O)C(=O)[C@H]4CC[C@H](C)CC4)CC3)c2)C1` (stereo partly drawn) [Compound 169, Sodium 3-(N-(4-(4-(3-(dimethylamino)pyrrolidine-1-carbonyl)pyridin-2-yloxy)cyclohexyl)-4-methylcyclohexanecarboxamido)-5-(3,3-dimethylbut-1-ynyl)thiophene-2-carboxylate], testing at 2 µM gave an inhibition of 100%.

Turning to `CC(C)(C)C#Cc1cc(N(C(=O)[C@H]2CC[C@H](C)CC2)[C@H]2CC[C@H](Oc3ccc(C#N)cn3)CC2)c(C(=O)O)s1` [Compound 9, 3-[[trans-4-(5-Cyano-pyridin-2-yloxy)-cyclohexyl]-(trans-4-methyl-cyclohexanecarbonyl)-amino]-5-(3,3-dimethyl-but-1-ynyl)-thiophene-2-carboxylic acid], the inhibition at 2 µM stood at 99.3%.

Consider `CN(C)c1ccc(O[C@H]2CC[C@H](N(c3cc(C#CC(C)(C)C)sc3C(=O)O)C(=O)[C@H]3CC[C@H](C)CC3)CC2)nn1` [Compound 160, 3-(N-(4-(6-(Dimethylamino)pyridazin-3-yloxy)cyclohexyl)-4-methylcyclohexanecarboxamido)-5-(3,3-dimethylbut-1-ynyl)thiophene-2-carboxylic acid], for which the inhibition at 2 µM is 99.9%.

Regarding `CC(C)(C)C#Cc1cc(N(C(=O)[C@H]2CC[C@H](C)CC2)[C@H]2CC[C@H](Oc3nccs3)CC2)c(C(=O)O)s1` [Compound 15, 5-(3,3-Dimethyl-but-1-ynyl)-3-{(trans-4-methyl-cyclohexanecarbonyl)-[trans-4-(thiazol-2-yloxy)-cyclohexyl]-amino}-thiophene-2-carboxylic acid], the inhibition at 2 µM came out at 99.6%.

Consider `Cn1nccc1S(=O)(=O)N1CCC(N(c2cc(C#CC(C)(C)C)sc2C(=O)O)C(=O)[C@H]2CC[C@H](C)CC2)CC1` [Compound 203, 5-(3,3-Dimethyl-but-1-ynyl)-3-{(4-methyl-cyclohexanecarbonyl)-[1-(2-methyl-2H-pyrazole-3-sulfonyl)-piperidin-4-yl]-amino}-thiophene-2-carboxylic acid], for which the inhibition at 2 µM was 99.8%.

As for `CC1CCC(C(=O)N(c2cc(C#CC(C)(C)C)sc2C(=O)O)[C@H]2CC[C@H](Oc3cnccc3CN(C)C)CC2)CC1` (stereo partly drawn) [Compound 198, 3-[[-4-(4-dimethylaminomethyl-pyridin-3-yloxy)-cyclohexyl]-(4-methyl-cyclohexanecarbonyl)-amino]-5-(3,3-dimethyl-but-1-ynyl)-thiophene-2-carboxylic acid], testing at 2 µM gave an inhibition of 99.9%.
